The term IC50 denotes the concentration needed to halve the response being measured.

SMILES strings stand for the structures. Where two headings read alike, the source gives them in different places.

The test concerns AEA cellular uptake, U937 cells. Put plainly: [3H]-AEA cellular uptake inhibition in U937 cells. The format is cell-based. The conditions noted are these: U937 cells. As for the experimental part: [^3H]-AEA Cellular Uptake
Screening for AEA cellular uptake inhibition was performed in a semi-automated procedure: Pipetting and washing steps were performed by a Biomek3000 laboratory workstation. First, required amounts of U937 cells were centrifuged at 100×g for 5 min and resuspended in RPMI (37° C.) to a final concentration of 2×10^6 cells/mL. Then, 250 μL of cell suspension (0.5×10^6 cells per sample) were transferred into AquaSil™ silanized glass vials (Chromacol 1.1-MTV) in 96-well format. After addition of 5 μL vehicle (DMSO) or compounds the cells were incubated at 37° C. for 15 min. As positive controls OMDM-2 and UCM707 were used at 10 μM in each run. The ETI-T compounds were measured at up to 7 concentrations in triplicates from 100 pM-100 μM. After pre-incubation, a mixture of 0.5 nM[ethanolamine-1-^3H]-AEA, (60 Ci/mmol) and 99.5 nM of cold AEA (final 100 nM) was added and samples were incubated at 37° C. for another 15 min. The reaction was stopped by rapid filtration over UniFilter-96 GF/C filters (PerkinElmer) pre-soaked with PBS 0.25% BSA. Cells were washed three times with 100 μL ice-cold PBS buffer containing 1% fatty acid free BSA. After drying, 45 μL MicroScint 20 scintillation cocktail (PerkinElmer, Waltham, Mass., US) was added to the wells and the plate was sealed. Radioactivity was measured by liquid scintillation counting on a PerkinElmer Wallac Trilux MicroBeta 1450 during 2 min. Non-specific binding of [^3H]AEA (100 nM) to the glass vials was never higher than 10%. IC50 values were calculated by GraphPad® by non-linear regression using the built-in log(inhibitor) vs. response-variable slope (four parameters) function.
Statistical analysis and IC50 values were determined using GraphPad® Prism 5.0 (GraphPad® Software, San Diego, Calif., US). Inhibition curves were obtained by non-linear regression using the built-in log(inhibitor) vs. response-variable slope (four parameters) function. Results were calculated as % of vehicle control of the corresponding fraction (cells, aqueous phase) if not mentioned else. In vivo results are shown in absolute values and were analyzed by a one-way ANOVA following a Tukey's multiple comparison test or student's t-test. If not indicated else the results were compared vs. vehicle (CTRL). *** P<0.001, ** P<0.01, * P<0.05, ns=not significant P>0.05.

[1] abbreviates: Homo sapiens, U-937, Table 1, 100 nM AEA, read-out: AEA uptake inhibition IC50.
The mark [2] stands for this setting: Homo sapiens, U-937, Table 4, read-out: AEA uptake IC50.

In the case of `CCOc1cc(/C=C2\S/C(=N\c3cc(Cl)ccc3C)NC2=O)ccc1O` [Compound 3], for the setting “Table 1, 100 nM AEA, read-out: AEA uptake inhibition IC50”, the 50% inhibitory concentration (IC50) was found to be 0.138 µM.

Take `C=CCCc1cc(/C=C2\SC(=NCC)N(CC)C2=O)cc(OCC)c1O` [Compound 4]: the concentration for half-maximal inhibition (IC50) was found to be 0.145 µM under setting [1] and 0.145 µM under setting [2].

For `C#CCOc1ccc(/C=C2\S/C(=N\c3ccc(OC)cc3)N(CCc3c[nH]c4ccccc34)C2=O)cc1` [Compound 7], the IC50 was 0.266 µM under setting [1] and 0.266 µM under setting [2].

`CCN1C(=O)/C(=C/c2ccc(O)cc2)S/C1=N\c1ccc(F)cc1` [Compound 8]: the half-inhibitory concentration (IC50) runs as follows: under setting [1], 0.268 µM; under setting [2], 0.268 µM.

As for `CCN1C(=O)/C(=C/c2ccc(C)cc2)S/C1=N\c1ccc(OC)cc1` [Compound 9], the IC50 was found to be 0.334 µM under setting [1] and 0.334 µM under setting [2].

Take `O=C1/C(=C/c2ccc(O)cc2)S/C(=N\c2ccccc2)N1Cc1ccco1` [Compound 11]: the IC50 runs as follows: under setting [1], 0.434 µM; under setting [2], 0.434 µM.

With `Cc1ccsc1/C=C1\S/C(=N\c2ccccc2)N(C(C)C)C1=O` [Compound 13], the half-maximal inhibitory concentration (IC50) was 0.51 µM under setting [1] and 0.51 µM under setting [2].

As for `COc1ccc(/C=C2\S/C(=N\c3ccccc3)N(c3ccccc3)C2=O)cc1` [Compound 14], the IC50 under setting [1] stood at 0.542 µM and the IC50 under setting [2] stood at 0.542 µM.

Turning to `CCCOc1cc(/C=C2\S/C(=N\c3ccccc3C)N(c3ccccc3C)C2=O)ccc1O` [Compound 15], the IC50 reads like this: under setting [1], 0.553 µM; under setting [2], 0.553 µM.

Turning to `CCN1C(=O)/C(=C/c2cc(I)c(O)c(OC)c2)S/C1=N\c1ccccc1` [Compound 17], the IC50 under setting [1] was determined as 0.594 µM and the IC50 under setting [2] was 0.594 µM.

For the molecule `COc1ccc(/N=C2\S/C(=C\c3ccc(O)cc3)C(=O)N2c2ccc(OC)cc2)cc1` [Compound 18], the IC50 stood at 0.597 µM under setting [1] and 0.597 µM under setting [2].

With `COc1ccc(/C=C2\S/C(=N\c3ccc(C)cc3)N(c3ccc(C)cc3)C2=O)cc1` [Compound 19], the half-inhibitory concentration (IC50) by setting is: under setting [1], 0.602 µM; under setting [2], 0.602 µM.

For the molecule `C=CCc1cc(/C=C2\S/C(=N\c3ccccc3)N(Cc3ccco3)C2=O)cc(OC)c1O` [Compound 20], the half-inhibitory concentration (IC50) is 0.661 µM under setting [1] and 0.661 µM under setting [2].

Consider `COc1ccc(C=C2SC(=Nc3ccc(F)cc3)N(c3ccc(F)cc3)C2=O)cc1OC` [ETI-T-343], for which the concentration for half-maximal inhibition (IC50) under setting [2] turned out to be 1.59 µM.

Consider `CCOc1cc(/C=C2\S/C(=N\c3ccccc3)N(CCOC)C2=O)ccc1O` [ETI-T-410], for which, under setting [2], the IC50 was found to be 1.3 µM.

With `CCOc1cc(/C=C2/S/C(=N\c3ccc(C)c(Cl)c3)N(c3ccc(C)c(Cl)c3)C2=O)ccc1O` [ETI-T-435], the half-inhibitory concentration (IC50) under setting [2] stood at 1.43 µM.

Turning to `CCOc1cc(/C=C2/S/C(=N/c3ccc(F)cc3)N(c3ccc(F)cc3)C2=O)ccc1O` [ETI-T-438], under setting [2], the IC50 was 1.35 µM.

In the case of `Cc1ccc(/N=C2\S/C(=C\c3ccc(O)c(Cl)c3)C(=O)N2c2ccc(C)cc2)cc1` [ETI-T-444], the concentration for half-maximal inhibition (IC50) under setting [2] stood at 1.15 µM.

As for `CCOc1cc(/C=C2/S/C(=N/c3ccc(OC)cc3)N(c3ccc(OC)cc3)C2=O)ccc1O` [ETI-T-445], the IC50 under setting [2] worked out at 1.05 µM.

The values above are taken from US10300048B2, “Thiazolidinones as cellular anandamide uptake inhibitors and their use in the treatment of psychiatric or neurological disorders and inflammation, in particular neuroinflammation” (UNIVERSITAT BERN, priority 2014, dated 2019).
